Laboratory results as given in PubChem BioAssay (NCI).
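Compound exposure: 48 hours, 5 concentrations, 96-well plates. TGI marks complete inhibition of growth.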

Legend:
Test in all cases: NCI tumour cell line growth inhibition, 48 h
[1] = tested on: A498 renal
[2] = tested on: A549 NSCLC
[3] = tested on: CAKI-1 renal
[4] = tested on: CCRF-CEM leukemia
[5] = tested on: COLO 205 colon
[6] = tested on: DLD-1 colon
[7] = tested on: DMS 114 small cell lung
[8] = tested on: DMS 273 small cell lung
[9] = tested on: EKVX NSCLC
[10] = tested on: HCC-2998 colon
[11] = tested on: HCT-116 colon
[12] = tested on: HCT-15 colon
[13] = tested on: HL-60(TB) leukemia
[14] = tested on: HOP-18 NSCLC
[15] = tested on: HOP-62 NSCLC
[16] = tested on: HOP-92 NSCLC
[17] = tested on: HT29 colon
[18] = tested on: IGROV1 ovarian
[19] = tested on: K-562 leukemia
[20] = tested on: KM12 colon
[21] = tested on: KM20L2 colon
[22] = tested on: LOX IMVI melanoma
[23] = tested on: M19-MEL melanoma
[24] = tested on: MALME-3M melanoma
[25] = tested on: MCF7 breast
[26] = tested on: MOLT-4 leukemia
[27] = tested on: NCI-H226 lung
[28] = tested on: NCI-H23 lung
[29] = tested on: NCI-H460 lung
[30] = tested on: NCI-H522 lung
[31] = tested on: NCI/ADR-RES ovarian
[32] = tested on: OVCAR-3 ovarian
[33] = tested on: OVCAR-4 ovarian
[34] = tested on: OVCAR-5 ovarian
[35] = tested on: OVCAR-8 ovarian
[36] = tested on: P388 leukemia
[37] = tested on: P388/ADR leukemia
[38] = tested on: RPMI-8226 leukemia
[39] = tested on: RXF 393 renal
[40] = tested on: SF-268 CNS
[41] = tested on: SF-295 CNS
[42] = tested on: SF-539 CNS
[43] = tested on: SK-MEL-2 melanoma
[44] = tested on: SK-MEL-28 melanoma
[45] = tested on: SK-MEL-5 melanoma
[46] = tested on: SK-OV-3 ovarian
[47] = tested on: SN12C renal
[48] = tested on: SN12K1 renal
[49] = tested on: SNB-19 CNS
[50] = tested on: SNB-75 CNS
[51] = tested on: SNB-78 CNS
[52] = tested on: SW-620 colon
[53] = tested on: U251 CNS
[54] = tested on: UACC-257 melanoma
[55] = tested on: UACC-62 melanoma
[56] = tested on: UO-31 renal
[57] = tested on: XF 498 CNS

O=C(N[C@@H](c1ccccc1)[C@@H](O)C(=O)OCc1ccc2c(c1)OCO2)c1ccccc1 was tested, and the TGI [1] was > 100 µM, the TGI [2] was > 100 µM and the TGI [3] was > 100 µM. The TGI [4] was > 100 µM, the TGI [5] was > 100 µM and the TGI [6] was > 100 µM. For the same molecule, the TGI [7] was > 100 µM, the TGI [8] was > 100 µM and the TGI [9] was > 100 µM. For the same molecule, the TGI [10] was > 100 µM, the TGI [11] was > 100 µM and the TGI [12] was > 100 µM. For the same molecule, the TGI [13] was > 100 µM, the TGI [14] was > 100 µM and the TGI [15] was > 100 µM. The TGI [16] was > 100 µM, the TGI [17] was > 100 µM and the TGI [18] was > 100 µM. The TGI [19] was > 100 µM, the TGI [20] was > 100 µM and the TGI [21] was > 100 µM. The TGI [22] was > 100 µM, the TGI [23] was > 100 µM and the TGI [24] was > 100 µM. The TGI [25] was > 100 µM, the TGI [26] was > 100 µM and the TGI [27] was > 100 µM. The TGI [28] was > 100 µM, the TGI [29] was > 100 µM and the TGI [30] was > 100 µM. For the same molecule, the TGI [31] was > 100 µM, the TGI [32] was > 100 µM and the TGI [33] was > 100 µM. For the same molecule, the TGI [34] was > 31.6 µM, the TGI [35] was > 100 µM and the TGI [36] was > 100 µM. The TGI [37] was > 100 µM, the TGI [38] was > 100 µM and the TGI [39] was > 100 µM. For the same molecule, the TGI [40] was > 100 µM, the TGI [41] was > 100 µM and the TGI [42] was > 100 µM. For the same molecule, the TGI [43] was > 100 µM, the TGI [44] was > 100 µM and the TGI [45] was > 100 µM. The TGI [46] was > 100 µM, the TGI [47] was > 100 µM and the TGI [48] was > 100 µM. The TGI [49] was > 100 µM, the TGI [50] was > 100 µM and the TGI [51] was > 100 µM. For the same molecule, the TGI [52] was > 100 µM, the TGI [53] was > 100 µM and the TGI [54] was > 100 µM. For the same molecule, the TGI [55] was > 100 µM, the TGI [56] was > 100 µM and the TGI [57] was > 100 µM.

For Cc1c2c(cc3c1[nH]c1ccccc13)C(c1ccc(Cl)cc1)=NCC2, the TGI [1] was 10.2 µM, the TGI [2] was 11.8 µM and the TGI [4] was 8.54 µM. The TGI [5] was 13.2 µM, the TGI [6] was 19 µM and the TGI [7] was 3.87 µM. For the same molecule, the TGI [8] was 2.62 µM, the TGI [9] was 35.1 µM and the TGI [10] was 10.7 µM. The TGI [11] was 12.7 µM, the TGI [12] was 9.89 µM and the TGI [13] was 0.717 µM. For the same molecule, the TGI [14] was 10.6 µM, the TGI [15] was 11.2 µM and the TGI [16] was 30.8 µM. The TGI [17] was 0.687 µM, the TGI [18] was 24.1 µM and the TGI [19] was 8.87 µM. It also gave a TGI [20] of 18.2 µM, a TGI [21] of 0.809 µM and a TGI [22] of 11.4 µM. For the same molecule, the TGI [23] was 88.8 µM, the TGI [24] was 55.9 µM and the TGI [25] was 7.32 µM. The TGI [26] was 1.79 µM, the TGI [27] was 6.82 µM and the TGI [28] was 2.98 µM. It also gave a TGI [29] of 1.33 µM, a TGI [30] of 4.45 µM and a TGI [31] of 1.39 µM. For the same molecule, the TGI [32] was 1.78 µM, the TGI [33] was 6.49 µM and the TGI [34] was 33.7 µM. For the same molecule, the TGI [35] was 7.14 µM, the TGI [36] was 1.47 µM and the TGI [37] was 18.4 µM. For the same molecule, the TGI [38] was 8.23 µM, the TGI [39] was 2.45 µM and the TGI [40] was 22 µM. For the same molecule, the TGI [41] was 0.718 µM, the TGI [42] was 2.53 µM and the TGI [43] was 7.9 µM. For the same molecule, the TGI [44] was 61.2 µM, the TGI [45] was 3.83 µM and the TGI [46] was 9.23 µM. For the same molecule, the TGI [47] was 3.46 µM, the TGI [48] was 0.829 µM and the TGI [49] was 1.72 µM. It also gave a TGI [50] of 1.42 µM, a TGI [51] of 27.1 µM and a TGI [52] of 19 µM. The TGI [53] was 5.7 µM, the TGI [54] was 43.9 µM and the TGI [55] was 17.6 µM. It also gave a TGI [56] of 8.99 µM and a TGI [57] of 0.0949 µM.
